Results taken from patent publication US20190376039A1, “CELLS WITH IMPROVED INWARD RECTIFIER CURRENT” (priority 2018, published 2019).

What was measured:
[1] = test system: ES-Kir2.1 and iPS-Kir2.1 cell lines; experiment: Initiation of cardiomyocyte differentiation (Day 0 medium); format: cell-based, human; conditions: 12 μM CHIR99021 in RPMI/B27-insulin
Procedure: The ES-Kir2.1 and iPS-Kir2.1 cell lines were cultured in feeder-free media and prepared for differentiation as previously described with modifications (see, e.g., Lian et al. (2012) “Robust cardiomyocyte differentiation from human pluripotent stem cells via temporal modulation of canonical Wnt signaling” Proc Natl Acad Sci USA 109: E1848-57; Lian et al. (2013) “Directed cardiomyocyte differentiation from human pluripotent stem cells by modulating Wnt/6-catenin signaling under fully defined conditions” Nature Protocols 8: 162-75, each of which is incorporated herein by reference in its entirety). In particular, five days prior to differentiation (“Differentiation Day −5”), cells were harvested and seeded. Media was removed from the stem cell cultures and the cells were and washed with 1 mL DPBS per well. Next, 1 mL of Versene was added to each well and the cells were incubated at 37° C. for 5 minutes. Cells were transferred to a 50-ml tube, an equal volume of medium was added, and the cells were resuspended by gentle pipetting to singularize the cells. Cells were counted, pelleted, and resuspended in culture medium (e.g., mTeSR1, Stem Flex, etc.) to provide cells at a concentration that is pipetted into 6-well plates at approximately 2 million cells per 6-well plate. […]

[2] = test system: IK1-induced ventricular-like SC-CMs; experiment: Action potentials under current clamp in paced IK1-induced SC-CMs (di-LQTS model); conditions: for APD10 / APD50 / APD70 / APD90 / RMP: E4031 20 nM, mean SE; for slope of linear regression, EAD take-off potential vs. peak EAD voltage: 100 nM E4031
Procedure: SC-CMs were singularized and plated before cellular electrophysiology experiments on 12-mm poly-d-lysine/laminin or SyntheMax pre-coated coverslips. IK1 was induced by treating singularized cells with doxycycline (2 μM) (Thermo Fisher Scientific) for 48-72 hours prior to cellular electrophysiology analysis. Borosilicate glass pipettes (3-4 MΩ) were used (Model P-97; Sutter Instruments, Novato, Calif.). Whole cell capacitance was calculated by using the time domain technique (20).
AP were measured under current clamp at 32° C. using an Axopatch 200B amplifier and pCLAMP 10 (Molecular Devices, Sunnyvale, Calif.). […] The pipette solution comprised 150 mM K-gluconate, 5 mM EGTA, 10 mM HEPES, and 5 mM MgATP (pH 7.2, KOH). Myocytes were paced at 0.5, 1, 2, and 3 Hz with a depolarizing pulse from a programmable digital stimulator (D55000; WPI, Sarasota, Fla.). AP properties including AP amplitude; resting membrane potential; AP duration at 10% (APD10), 50% (APD50), 70% (APD70), and 90% (APD90) of repolarization; and maximum upstroke velocity (dV/dtmax) were measured (pCLAMP 10; Matlab 6.0, Natick, Mass.). […] Myocytes were paced at 0.5 and 1 Hz. […] AP properties identified above were re-measured.

[3] = 0.5 Hz pacing, E4031 20 nM and 100 nM, ATX-II 30 nM
[4] = drug vs baseline, E4031, ATX-II 30 nM
[5] = 20 nM E4031, 0.5 Hz pacing, p<0.01

Molecule | cell killing at initiation of differentiation [1] | AP prolongation (APD) compared to control [2, 3] | induction of early afterdepolarizations (EADs) [2, 3] | APD10 ([2]; 0.5 Hz pacing, ATX-II 30 nM) [ms] | APD50 ([2]; 0.5 Hz pacing, ATX-II 30 nM) [ms] | APD70 ([2]; 0.5 Hz pacing, ATX-II 30 nM) [ms] | APD90 ([2]; 0.5 Hz pacing, ATX-II 30 nM) [ms] | RMP ([2]; 0.5 Hz pacing, ATX-II 30 nM) [mV] | effect on RMP [2, 4] | effect on dV/dt max [2, 4] | effect on APD10 compared with control ([2]; 20 nM E4031, 0.5 Hz pacing) | effect on APD50 compared with control ([2]; 20 nM E4031, 0.5 Hz pacing) | effect on APD70 compared with control [2, 5] | effect on APD90 compared with control [2, 5] | slope of linear regression, EAD take-off potential vs. peak EAD voltage ([2]; FIG. 4C) | slope of linear regression, EAD take-off potential vs. peak EAD voltage ([2]; FIG. 4D, second independent experiment)
Cc1c[nH]c(-c2cnc(NCCNc3ccc(C#N)cn3)nc2-c2ccc(Cl)cc2Cl)n1 [CHIR99021] | kills all or most of the cells |  |  |  |  |  |  |  |  |  |  |  |  |  |  | 
ATX-II: late sodium current agonist (Alamone Labs); late INa enhancing drug (delayed channel inactivation) |  | markedly increased | did not occur | 45.2 ± 25.0 | 869.4 ± 111.7 | 1025.6 ± 107.4 | 1056.9 ± 106.5 | −76.2 ± 3.65 | no difference | no difference |  |  |  |  |  | 
Cc1cccc(CCN2CCC(C(=O)c3ccc(NS(C)(=O)=O)cc3)CC2)n1 [E4031] |  | dose-dependent AP prolongation |  | 131.1 ± 53.4 | 633.8 ± 153.2 | 767.5 ± 164.8 | 802.4 ± 172.0 | −70.6 ± 4.11 | remains normally polarized and stable |  | No significant effect | No significant effect | significantly prolongs | significantly prolongs | −2.6±0.1 | −1.68±0.09
